The record followed here is US11964943B2, “3,5-diarylidenyl-n-substituted-piperid-4-one-derived inhibitors of Stat3 pathway activity and uses thereof” (priority 2017, dated 2024).

Where “and” joins values, the source holds several entries; their conditions need not be identical. Equal values may be shown once. Read-outs that look alike come from different tables or passages of the source.

Assay [1] deals with L1210 (lymphoma) cells. As to the kind of experiment: MTT cytotoxicity assay, L1210 cells. For orientation: Tetrazolium assays rely on reduction of a dye to a coloured formazan, in cell work by metabolically active cells.
The subject of assay [2] is B16 (melanoma) cells. As to the kind of experiment: MTT cytotoxicity assay, B16 cells.
Where [3] appears, read: Mus musculus, L1210, 72 h, read-out: IC50 (μM) L1210, 72 h exposure, MTT, mean of three independent experiments.
Where [4] appears, read: Mus musculus, B16, 72 h, read-out: IC50 (μM) B16, 72 h exposure, MTT, mean of three independent experiments.
The mark [5] stands for this setting: read-out: IC50 (μM) L1210, 72 h exposure, MTT, mean of three independent experiments.
Where [6] appears, read: read-out: IC50 (μM) B16, 72 h exposure, MTT, mean of three independent experiments.

On to `O=C1/C(=C/c2ccc([N+](=O)[O-])cc2)CN(Cc2ccccc2)C/C1=C\c1ccc([N+](=O)[O-])cc1` [ID-3], for which the values for the IC50 in assay [1] (setting [3]) and in assay [2] (setting [4]) were 2 ± 1 µM and 2.5 ± 0.7 µM, respectively.
As for `COc1cc(/C=C2\CN(C(C)C)C/C(=C\c3cc(OC)c(OC)c(OC)c3)C2=O)cc(OC)c1OC` [IC-8], the IC50 in assay [1] (setting [3]) was 25 to 65 µM; in assay [1] (read-out: IC50 (μM) L1210, 72 h exposure, MTT, mean of three independent experiments, listed as 6h) it was 47 µM and 47.1 µM; in assay [2] (setting [4]) it was 25 to 65 µM; in assay [2] (read-out: IC50 (μM) B16, 72 h exposure, MTT, mean of three independent experiments, listed as 6h) it was 25.6 µM.
`COc1ccc(/C=C2\CNC/C(=C\c3ccc(OC)c(OC)c3)C2=O)cc1OC` [IA-7]: the IC50 in assay [1] (setting [3]) was 0.6 ± 0.2 µM; in assay [2] (setting [4]) it was 2.3 ± 0.5 µM.
In the same order, the values of `COc1cc(/C=C2\CN(Cc3ccccc3)C/C(=C\c3ccc(O)c(OC)c3)C2=O)ccc1O` [ID-6] are 2.8 ± 0.4 µM and 2 ± 0.5 µM.
The matching figures for `O=C1/C(=C/c2ccc([N+](=O)[O-])cc2)CNC/C1=C\c1ccc([N+](=O)[O-])cc1` [IA-3]: 0.3 µM and 15 µM.
For `Cc1ccc(/C=C2\CNC/C(=C\c3ccc(C)cc3)C2=O)cc1` [IB-2], the IC50 turned out to be 35 ± 5 µM in assay [1] (setting [5]) and 41 ± 6 µM in assay [2] (setting [6]).
As to `COc1cc(/C=C2\CN(C(C)C)C/C(=C\c3ccc(O)c(OC)c3)C2=O)ccc1O` [IC-6], the IC50 in assay [1] (setting [3]) and in assay [2] (setting [4]) was 2.2 ± 0.2 µM throughout.
Regarding `Cc1ccc(/C=C2\CN(Cc3ccccc3)C/C(=C\c3ccc(C)cc3)C2=O)cc1` [ID-2], the results for the IC50 in assay [1] (setting [3]) and in assay [2] (setting [4]) were 9 µM and 14 µM, respectively.
Turning to `COc1ccc(/C=C2\CNC/C(=C\c3ccc(OC)cc3)C2=O)cc1` [IA-4], the IC50 in assay [1] (setting [5]) is 35 ± 8 µM; in assay [2] (setting [4]) it was 25 to 65 µM; in assay [2] (read-out: IC50 (μM) B16, 72 h exposure, MTT, mean of three independent experiments, listed as 4d), 43 µM.
As for `CN1C/C(=C\c2ccccc2)C(=O)/C(=C/c2ccccc2)C1` [IB-1], the half-inhibitory concentration (IC50) in assay [1] (setting [3]) is 2.4 ± 0.3 µM; in assay [2] (setting [4]), 5 ± 2 µM.
In the same order, the values of `COc1ccc(/C=C2\CN(C)C/C(=C\c3ccc(OC)cc3)C2=O)cc1` [IB-4] are 62 µM and 23 µM.
With `COc1ccc(/C=C2\CN(Cc3ccccc3)C/C(=C\c3ccc(OC)c(OC)c3)C2=O)cc1OC` [ID-7], the IC50 in assay [1] (setting [3]) amounted to 3.3 ± 0.1 µM; in assay [2] (setting [4]) it was 2 ± 0.4 µM; in assay [2] (read-out: IC50 (μM) B16, 72 h exposure, MTT, mean of three independent experiments, listed as 7g), 2.5 ± 0.4 µM.
`COc1ccc(/C=C2\CN(C)C/C(=C\c3ccc(OC)c(OC)c3)C2=O)cc1OC` [IB-7]: the IC50 in assay [1] (setting [3]) was 0.8 to 1.9 µM; in assay [1] (setting [5]) it was 1 ± 0.6 µM; in assay [2] (setting [4]) it was 1.3 to 2.1 µM; in assay [2] (setting [6]), 1.3 ± 0.1 µM.
In the case of `O=C1/C(=C/c2ccccc2)CNC/C1=C\c1ccccc1` [IA-1], the IC50 in assay [1] (setting [3]) is 0.5 µM; in assay [2] (setting [4]), 5 ± 1 µM. Besides, the “IC50 (μM) B16” value in assay [2] (72 h exposure, MTT, mean of three independent experiments) is listed as “_Ta”.
As to `COc1cc(/C=C2\CN(C)C/C(=C\c3ccc(O)c(OC)c3)C2=O)ccc1O` [IB-6], the results for the concentration for half-maximal inhibition (IC50) in assay [1] (setting [5]), in assay [2] (setting [4]) and in assay [2] (setting [6]) were 1.9 ± 0.4 µM, 1.3 to 2.1 µM and 1.8 ± 0.3 µM, respectively.
On to `COc1ccc(/C=C2\CN(Cc3ccccc3)C/C(=C\c3ccc(OC)c(O)c3)C2=O)cc1O` [ID-5], for which the IC50 in assay [1] (setting [3]) was found to be 3.1 ± 0.1 µM; in assay [2] (setting [4]), 2.4 ± 0.5 µM.
In the case of `COc1ccc(/C=C2\CN(Cc3ccccc3)C/C(=C\c3ccc(OC)cc3)C2=O)cc1` [ID-4], the IC50 turned out to be 8 µM in assay [1] (setting [3]) and 27 µM in assay [2] (setting [4]).
Take `Cc1ccc(/C=C2\CN(C(C)C)C/C(=C\c3ccc(C)cc3)C2=O)cc1` [IC-2]: the IC50 amounted to 2.5 ± 0.7 µM in assay [1] (setting [3]) and 4 ± 2 µM in assay [2] (setting [4]).
As to `CN1C/C(=C\c2ccc([N+](=O)[O-])cc2)C(=O)/C(=C/c2ccc([N+](=O)[O-])cc2)C1` [IB-3], the IC50 in assay [1] (setting [3]) came out at 1.3 µM; in assay [2] (setting [6]), 41 ± 2 µM; in assay [2] (read-out: IC50 (μM) B16, 72 h exposure, MTT, mean of three independent experiments, listed as 5c), 4 µM.
For `COc1ccc(/C=C2\CN(C)C/C(=C\c3ccc(OC)c(O)c3)C2=O)cc1O` [IB-5], the half-maximal inhibitory concentration (IC50) is 0.8 to 1.9 µM in assay [1] (setting [3]), 0.8 ± 0.4 µM in assay [1] (setting [5]), 1.3 to 2.1 µM in assay [2] (setting [4]) and 2.1 ± 0.1 µM in assay [2] (setting [6]).
Turning to `COc1cc(/C=C2\CNC/C(=C\c3ccc(O)c(OC)c3)C2=O)ccc1O` [IA-6], the IC50 amounted to 0.9 ± 0.4 µM in assay [1] (setting [3]) and 1.3 ± 0.6 µM in assay [2] (setting [4]).
In the same order, the values of `COc1ccc(/C=C2\CNC/C(=C\c3ccc(OC)c(O)c3)C2=O)cc1O` [IA-5] are 0.9 ± 0.3 µM and 3 ± 1 µM.

As a reminder, the IC50 is the point on the concentration scale where inhibition reaches its midpoint.
